Laboratory results from US20070043108A1, “Use of equol for ameliorating or preventing neuropsychiatric and neurodegenerative diseases or disorders” (priority 2002, published 2007).

Legend:
[1] = target: T1, ERβ (Rattus norvegicus, UniProt Q62986); assay: Competition binding of equol enantiomers with [3H]E2 for in vitro translated ERβ
T1 construct: Full length rat ERα expression vector (pcDNA-ERα; RH Price UCSF) and ERβ expression vector (pcDNA-ERβ; T A Brown, Pfizer; made in house; host or cells: TnT-coupled rabbit reticulocyte lysate in vitro translation (Promega)
Experimental: In vitro binding studies were performed to examine the relative affinities of S— and R-enantiomeric equol with the estrogen receptors ERα and ERβ.
Synthesis of Hormone Receptor Proteins: Full length rat ERα expression vector (pcDNA-ERα; RH Price UCSF) and ERβ expression vector (pcDNA-ERβ; T A Brown, Pfizer, Groton, […].) were used to synthesize hormone receptors in vitro using the TnT-coupled reticulocyte lysate system (Promega, Madison, Wis.) with T7-RNA polymerase, during a 90 min reaction at 30° C. Translation reaction mixtures were stored at −80° C. until further use.
Saturation isotherms: In order to calculate and establish the binding affinity of the S-equol and R-equol enantiomers for ERα and ERβ, 100 μL aliquots of reticulocyte lysate supernatant were incubated at optimal time and temperature; 90 min at room temperature (ERβ) and 18 hrs at 4° C. (ERα), with increasing (0.01-100 nm) concentrations of [3H] […] These times were determined empirically and represent optimal binding of receptor with estrogen. Nonspecific binding was assessed using a 300-fold excess of the ER agonist diethylstilbestrol, in parallel tubes. Following incubation, bound and unbound [3H]E2 were separated by passing the incubation reaction through a 1 mL lipophilic Sephadex LH-20 (Sigma-Aldrich Co., Saint Louis, Mo.) column Columns were constructed by packing a disposable pipette tip (1 mL; Labcraft, Curtin Matheson Scientific, Inc, Houston, Tex.) with TEGMD (10 mm Tris-Cl, 1.5 mm EDTA, 10% glycerol, 25 mm molybdate, and 1 mm dithiothreitol, pH 7.4)-saturated Sephadex according to previously published protocols (Wanda et al., 1986; O'Keefe and Handa, 1990). For chromatography, the columns were re-equilibrated with TEGMD (100 μL), and the incubation reactions were added individually to each column and allowed to incubate on the column for an additional 30 min. Following this incubation, 600 μL of TEGMD were added to each column, flow-through was collected, 4 mL scintillation fluid was added, and samples were counted (5 min each) in an 2900 TR Packard scintillation counter (Packard Bioscience, Meriden, Conn.).
Competition binding studies were used to assess the estrogenic properties of equol's S-equol and R-equol enantiomers. Based on the ability of S and R to compete with [3H]

[2] = test system: adult Long-Evans male rats; assay: Example 18: elevated plus maze, body weight and hypothalamic volumes in adult male rats treated with equol; format: in vivo, rat
From the text: In this study, anxiety-related behaviors were examined along with hormone levels in adult Long-Evans male rats exposed to equol. A known and accepted animal behavioral test for psychiatric disorders in humans, such as elevated plus maze (EPM) was used for this purpose (P. Willner, in Behavioral Models in Psychopharmacology: Theoretical, Industrial and Clinical Perspectives, New York, Cambridge Univ. Press, 1991; M. A. Geyer & A. Markou, in Psychopharmacology: The Fourth Generation of Progress, NY, Raven Press, pp. 787-798, 1995; and R. Hitzemann, Alcohol & Res. Health, 24: 149-158, 2000).
The EPM test relies on the inherent conflict between exploration of a novel environment and avoidance of its aversive features. Typically, animals spend little time and make few entries into the open arms (new environment) compared to the closed arms of the maze (secure environment). For example, an anti-anxiety agent or drug would increase the number of entries into and total time spent in the open arms of the maze.
Male rats 50 days of age were given a diet low in phytoestrogens (10 ppm of isoflavones) and remained on this diet until 215 days of age. At 150 days of age the rats were age and body weight matched and then divided into control or equol treatment groups. Starting at 190 days, the male rats received daily subcutaneous (0.1 cc) injections of control vehicle (DMSO) or equol (2.5 mg/Kg) for 25 consecutive days.
After 15 days on the treatments the animals were tested in the EPM that was video-taped for 3 minutes and later recorded for the number of entries into—and the percentage of total time spent—on the open arms via AnyMaze® computer software.
At 215 days of age the animals were sacrificed and body/prostate weights, serum hormone and isoflavone levels were determined along with determining the volume of hypothalamic regions that are sensitive to hormones.
The brains were processed via standard staining and analyzed via Bioquant® for morphometric SDN and AVPV parameters by treatments.

[3] = test system: mid-aged Long-Evans female rats; assay: Example 17: Porsolt forced swim test and body weight in mid-aged female rats; format: in vivo, rat
Experimental: The female rats were exposed (from time of conception) to either a phytoestrogen-rich (Phyto-600) or a phytoestrogen-free (Phyto-free) diet.
At 12 months of age, the animals were analyzed using the Porsolt forced swim test that is a standard preclinical test with applications to humans for investigating the neurobiology of depression and of action of antidepressant agent (R. D. Porsolt, M. Pichon and M Jalfre, Nature 266: 730-732, 1977; and M. A. Geyer & A. Markou, in Psychopharmacology: The Fourth Generation of Progress, NY, Raven Press, pp. 787-798, 1995).
The test is designed to force rats to swim vigorously. Over time, some of the animals may become immobile which is considered a condition of behavioral despair. The total time an animal is immobile is an index of despair or depression. […] S. Hall, J. Comp. Psych., 18: 385-403, 1934), increased boli numbers during the test would indicate heighten emotional behavior. All of these parameters were recorded in this study and quantified by AnyMaze® computer software and the total time of the Porsolt forced swim test was 480 seconds or 8 minutes.
The animals were tested twice.
Test 1 compared diet exposure alone, shown as A in FIGS. 58-69 and labeled as “before equol injections.”
In the second stage of testing the Phyto-free fed females were injected with equol@ […] or 2.5 mg/kg via subcutaneous administration) for 8 days while the Phyto-600 fed females received dimethylsulfoxide (DMSO) vehicle control injections. (DMSO has been used in medicine due to its ability to penetrate deeply through the skin and other membranes without damaging them and ability to carry compounds into the circulation).
Test 2 assessed depressive behaviors following the equol treatments, shown as B in FIGS. 58-69 and labeled as “after equol injections.”

[4] = test system: intact males; assay: Example 2: tissue weights from intact males given sc injections of racemic equol; format: in vivo, rat; conditions: sc once/day for 7 days
[5] = 25 consecutive days, n = 4, not significant vs control
[6] = after 15 days of treatment, vs controls
[7] = Test 2, Phyto-free females after equol for 8 days

T1 sequence (Q62986 whole entry): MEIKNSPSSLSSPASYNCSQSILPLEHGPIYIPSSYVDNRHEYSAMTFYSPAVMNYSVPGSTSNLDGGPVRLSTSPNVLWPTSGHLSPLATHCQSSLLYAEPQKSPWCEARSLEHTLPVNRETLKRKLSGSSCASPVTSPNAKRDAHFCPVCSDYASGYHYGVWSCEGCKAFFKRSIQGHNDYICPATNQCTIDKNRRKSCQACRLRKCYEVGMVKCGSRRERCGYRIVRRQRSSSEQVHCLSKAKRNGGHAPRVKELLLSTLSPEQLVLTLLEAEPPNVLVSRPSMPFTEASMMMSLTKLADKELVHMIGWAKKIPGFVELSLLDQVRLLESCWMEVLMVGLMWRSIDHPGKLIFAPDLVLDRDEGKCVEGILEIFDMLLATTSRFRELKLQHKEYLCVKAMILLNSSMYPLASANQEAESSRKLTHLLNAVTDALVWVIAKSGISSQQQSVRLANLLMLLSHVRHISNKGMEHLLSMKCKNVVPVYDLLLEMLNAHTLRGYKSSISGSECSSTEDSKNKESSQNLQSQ

| SMILES | affinity for ERβ, fold less [1] | Kd ([1]; competition with [3H]E2, in vitro translated ER) [nM] | AVPV Volumes [2, 5] [mm^3 × 10^−3] | SDN Volumes [2, 5] [mm^3 × 10^−3] | number of entries into the open arms of the EPM [2, 6] | time spent on the open arms of the EPM [2, 6] | body weights ([2]; equol 2.5 mg/Kg sc daily for 25 days, vs control) | serum equol levels ([2]; equol-treated animals) | total distance traveled ([3]; Test 2, Phyto-free females after equol 5 mg/day sc for 8 days) | number of boli [3, 7] | number of dives [3, 7] | total time immobile [3, 7] | total time mobile ([3]; Test 2, after vs before equol injections) | decrease in body weight over controls ([3]; after the 8 day treatment interval) [fold] | Body Weight Loss (grams) ([3]; mid-aged females, end of 8 day treatment, ±SEM) | Body (g) [4] | Epididymis (g) [4] | Pituitary (g) [4] | Prostate (g) [4] | Testes (g) [4] |
| --- | --- | --- | --- | --- | --- | --- | --- | --- | --- | --- | --- | --- | --- | --- | --- | --- | --- | --- | --- | --- |
| Oc1ccc([C@@H]2COc3cc(O)ccc3C2)cc1 [R-equol] | approximately 100 fold | 15.4 ± 1.31 |  |  |  |  |  |  |  |  |  |  |  |  |  |  |  |  |  |  |
| Oc1ccc(C2COc3cc(O)ccc3C2)cc1 (racemic) [equol, 7-hydroxy-3(4′hydroxyphenyl)-chroman] |  |  | 10.59 ± 1.6 | 46.3 ± 3.1 | significantly greater | significantly greater | significantly decreased | equivalent to consuming a phytoestrogen-rich soy diet | increased and similar to control values | reduced after equol treatments | significantly reduced and comparable to control levels | significantly reduced and similar to controls | significantly increased | 2.6 | −31.2 (±4.8*) grams | 418.0 (±7.52) g | 1.59 (±0.06) g | 0.014 (±0.002) g | 0.38 (±0.06) g | 3.48 (±0.08) g |
